Measured values published in patent US11230543B2, “Biaryl monobactam compounds and methods of use thereof for the treatment of bacterial infections” (priority 2015, dated 2022).
Where a name gives a salt, the structure may show the parent alone.

Key:
[1] = tested on: Pseudomonas aeruginosa expressing AmpC (CL5701); experiment: Antibiotic activity: growth inhibitory concentration (OD600), Pseudomonas aeruginosa CL5701; type: cell-based; conditions: lowest concentration inhibiting 95% of bacterial growth; in the presence of β lactamase inhibitor Relebactam 4 μg/mL; 35±2° C. for 22 hours; tested range 100 μM to 0.098 μM
Procedure, shortened: (§1)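 Growth inhibition by OD600 after 22 hours incubation at 35±2° C, reported as lowest concentration inhibiting 95% of growth (MITC95). Final compound range 100 μM to 0.098 μM, always combined with β-lactamase inhibitor relebactam (4 μg/mL final); inoculum ~2×10^5 CFU/mL in cation-adjusted Mueller-Hinton II broth.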

[2] = tested on: Klebsiella pneumoniae expressing KPC-1 (CL6569); experiment: Antibiotic activity: growth inhibitory concentration (OD600), Klebsiella pneumoniae CL6569; type: cell-based; conditions: lowest concentration inhibiting 95% of bacterial growth; in the presence of β lactamase inhibitor Relebactam 4 μg/mL; 35±2° C. for 22 hours; tested range 100 μM to 0.098 μM
Procedure, shortened: as §1

Row | SMILES | PA_CL5701 MITC95 [1] [µM] | KP_CL6569 MITC95 [2] [µM]
1 | C[n+]1cc(-c2ccc(OC[C@](C)(O/N=C(\C(=O)N[C@@H]3C(=O)N(OS(=O)(=O)O)C3(C)C)c3csc(N)n3)C(=O)O)cc2)cn1CCCN [Example 39, (S)-3-((Z)-2-((((S)-1-(4-(1-(3-aminopropyl)-2-methyl-1H-pyrazol-2-ium-4-yl)phenoxy)-2-carboxypropan-2-yl)oxy)imino)-2-(2-aminothiazol-4-yl)acetamido)-2,2-dimethyl-4-oxoazetidin-1-yl sulfate] | 3.125 | 0.3255
2 | C[n+]1cc(-c2ccc(OCC(O/N=C(\C(=O)N[C@@H]3C(=O)N(OS(=O)(=O)O)C3(C)C)c3csc(N)n3)P(=O)(O)O)cc2)cn1CCCN (stereo partly drawn) [Example 40, (3S)-3-((Z)-2-((2-(4-(1-(3-aminopropyl)-2-methyl-1H-pyrazol-2-ium-4-yl)phenoxy)-1-phosphonoethoxy)imino)-2-(2-aminothiazol-4-yl)acetamido)-2,2-dimethyl-4-oxoazetidin-1-yl sulfate] | 50 | 3.125
3 | COP(=O)(O)[C@H](COc1ccc(-c2cn(CCCN)[n+](C)c2)cc1)O/N=C(\C(=O)N[C@@H]1C(=O)N(OS(=O)(=O)O)C1(C)C)c1csc(N)n1.O=C(O)C(F)(F)F [Example 41, (3S)-3-((Z)-2-(((1R)-2-(4-(1-(3-aminopropyl)-2-methyl-1H-pyrazol-2-ium-4-yl)phenoxy)-1-(hydroxy(methoxy)phosphoryl)ethoxy)imino)-2-(2-aminothiazol-4-yl)acetamido)-2,2-dimethyl-4-oxoazetidin-1-yl sulfate compound with 2,2,2-trifluoroacetic acid (1:1)] | 25 | 1.563
4 | C[n+]1cc(-c2ccc(OC[C@H](O/N=C(\C(=O)N[C@@H]3C(=O)N(OS(=O)(=O)O)C3(C)C)c3csc(N)n3)C(=O)O)cc2)cn1CC(O)CN (stereo partly drawn) [Example 42, (3S)-3-((Z)-2-(((1S)-2-(4-(1-(3-amino-2-hydroxypropyl)-2-methyl-1H-pyrazol-2-ium-4-yl)phenoxy)-1-carboxyethoxy)imino)-2-(2-aminothiazol-4-yl)acetamido)-2,2-dimethyl-4-oxoazetidin-1-yl sulfate] | 3.125 | 0.3906
5 | C[n+]1cc(-c2ccc(OC[C@H](O/N=C(\C(=O)N[C@@H]3C(=O)N(OS(=O)(=O)O)C3(C)C)c3csc(N)n3)C(=O)O)cc2F)cn1CC(O)CN.O=CO (stereo partly drawn) [Example 44, (3S)-3-((Z)-2-(((1S)-2-(4-(1-(3-amino-2-hydroxypropyl)-2-methyl-1H-pyrazol-2-ium-4-yl)-3-fluorophenoxy)-1-carboxyethoxy)imino)-2-(2-aminothiazol-4-yl)acetamido)-2,2-dimethyl-4-oxoazetidin-1-yl sulfate compound with formic acid (1:1)] | 3.125 | 0.1953
6 | C[n+]1c(N)c(-c2ccc(OC[C@H](O/N=C(\C(=O)N[C@@H]3C(=O)N(OS(=O)(=O)[O-])C3(C)C)c3csc(N)n3)C(=O)O)cc2F)cn1CCCN [Example 47, (S)-3-((Z)-2-(((S)-2-(4-(3-Amino-1-(3-aminopropyl)-2-methyl-1H-pyrazol-2-ium-4-yl)-3-fluorophenoxy)-1-carboxyethoxy)imino)-2-(2-aminothiazol-4-yl)acetamido)-2,2-dimethyl-4-oxoazetidin-1-yl sulfate] | 3.125 | 0.3906
7 | C[n+]1c(N)c(-c2ccc(OC[C@H](O/N=C(\C(=O)N[C@@H]3C(=O)N(OS(=O)(=O)[O-])C3(C)C)c3nc(N)sc3Cl)C(=O)O)cc2F)cn1CCCN [Example 48, (S)-3-((Z)-2-(((S)-2-(4-(3-Amino-1-(3-aminopropyl)-2-methyl-1H-pyrazol-2-ium-4-yl)-3-fluorophenoxy)-1-carboxyethoxy)imino)-2-(2-amino-5-chlorothiazol-4-yl)acetamido)-2,2-dimethyl-4-oxoazetidin-1-yl sulfate] | 6.25 | 0.7813
8 | C[n+]1c(N)c(-c2ccc(OC[C@H](O/N=C(\C(=O)N[C@@H]3C(=O)N(OS(=O)(=O)[O-])C3(C)C)c3nc(N)sc3Cl)C(=O)O)cc2)cn1CCCN [Example 49, (S)-3-((Z)-2-(((S)-2-(4-(3-Amino-1-(3-aminopropyl)-2-methyl-1H-pyrazol-2-ium-4-yl)phenoxy)-1-carboxyethoxy)imino)-2-(2-amino-5-chlorothiazol-4-yl)acetamido)-2,2-dimethyl-4-oxoazetidin-1-yl sulfate] | 6.25 | 0.7813
9 | C[n+]1cc(-c2ccc(OC[C@@](C)(O/N=C(\C(=O)N[C@@H]3C(=O)N(OS(=O)(=O)O)C3(C)C)c3nc(N)sc3Cl)C(=O)O)cc2)cn1CCCN [Example 51B, (S)-3-((Z)-2-(2-amino-5-chlorothiazol-4-yl)-2-((((R)-1-(4-(1-(3-aminopropyl)-2-methyl-1H-pyrazol-2-ium-4-yl)phenoxy)-2-carboxypropan-2-yl)oxy)imino)acetamido)-2,2-dimethyl-4-oxoazetidin-1-yl sulfate] | 25 | 6.25
10 | CC1(C)[C@H](NC(=O)/C(=N\O[C@@H](COc2ccc(-c3cn(C[C@@H](O)CN)[n+](CC4CNC4)c3)cc2)C(=O)O)c2csc(N)n2)C(=O)N1OS(=O)(=O)[O-] [Example 52, (S)-3-((Z)-2-(((S)-2-(4-(1-((S)-3-Amino-2-hydroxypropyl)-2-(azetidin-3-ylmethyl)-1H-pyrazol-2-ium-4-yl)phenoxy)-1-carboxyethoxy)imino)-2-(2-aminothiazol-4-yl)acetamido)-2,2-dimethyl-4-oxoazetidin-1-yl sulfate] | 1.563 | 0.1953
11 | CC1(C)[C@H](NC(=O)/C(=N\O[C@@H](COc2ccc(-c3cn(CCCN)[n+](C[C@@H]4CCNC4)c3)cc2)C(=O)O)c2csc(N)n2)C(=O)N1OS(=O)(=O)[O-] [Example 53, (S)-3-((Z)-2-(((S)-2-(4-(1-(3-aminopropyl)-2-(((R)-pyrrolidin-3-yl)methyl)-1H-pyrazol-2-ium-4-yl)phenoxy)-1-carboxyethoxy)imino)-2-(2-aminothiazol-4-yl)acetamido)-2,2-dimethyl-4-oxoazetidin-1-yl sulfate] | 1.563 | 0.09766
12 | CC1(C)[C@H](NC(=O)/C(=N\O[C@@H](COc2ccc(-c3cn(CCCN)[n+](CCCN)c3)cc2)C(=O)O)c2csc(N)n2)C(=O)N1OS(=O)(=O)[O-] [Example 54, (S)-3-((Z)-2-(2-aminothiazol-4-yl)-2-(((S)-2-(4-(1,2-bis(3-aminopropyl)-1H-pyrazol-2-ium-4-yl)phenoxy)-1-carboxyethoxy)imino)acetamido)-2,2-dimethyl-4-oxoazetidin-1-yl sulfate] | 1.563 | 0.09766
13 | Cn1c(-c2ccc(OC[C@H](O/N=C(\C(=O)N[C@@H]3C(=O)N(OS(=O)(=O)O)C3(C)C)c3csc(N)n3)C(=O)O)cc2)cn(CC(CN)CN)c1=N [Example 55, (S)-3-(4-(1-(3-amino-2-(aminomethyl)propyl)-2-imino-3-methyl-2,3-dihydro-1H-imidazol-4-yl)phenoxy)-2-((((Z)-1-(2-aminothiazol-4-yl)-2-(((S)-2,2-dimethyl-4-oxo-1-(sulfooxy)azetidin-3-yl)amino)-2-oxoethylidene)amino)oxy)propanoic acid] | 1.563 | 0.1953
14 | CC1(C)[C@H](NC(=O)/C(=N\O[C@@H](COc2ccc([C@H]3CN=C(NCCN)N3)cc2)C(=O)O)c2csc(N)n2)C(=O)N1OS(=O)(=O)O [Example 58, (S)-3-(4-((S)-2-((2-aminoethyl)amino)-4,5-dihydro-1H-imidazol-4-yl)phenoxy)-2-((((Z)-1-(2-aminothiazol-4-yl)-2-(((S)-2,2-dimethyl-4-oxo-1-(sulfooxy)azetidin-3-yl)amino)-2-oxoethylidene)amino)oxy)propanoic acid] | 3.125 | 0.3906
15 | CC1(C)[C@H](NC(=O)/C(=N\O[C@@H](COc2ccc(C3CN=C(NCCN)N3)cc2)C(=O)O)c2csc(N)n2)C(=O)N1OS(=O)(=O)O (stereo partly drawn) [Example 60, (2S)-3-(4-(2-((2-aminoethyl)amino)-4,5-dihydro-1H-imidazol-5-yl)phenoxy)-2-((((Z)-1-(2-aminothiazol-4-yl)-2-(((S)-2,2-dimethyl-4-oxo-1-(sulfooxy)azetidin-3-yl)amino)-2-oxoethylidene)amino)oxy)propanoic acid] | 3.125 | 0.3906
16 | CC1(C)[C@H](NC(=O)/C(=N\O[C@@H](COc2ccc(C(N)CNC3=NCCN3)cc2)C(=O)O)c2csc(N)n2)C(=O)N1OS(=O)(=O)O (stereo partly drawn) [Example 61, (2S)-3-(4-(1-amino-2-((4,5-dihydro-1H-imidazol-2-yl)amino)ethyl)phenoxy)-2-((((Z)-1-(2-aminothiazol-4-yl)-2-(((S)-2,2-dimethyl-4-oxo-1-(sulfooxy)azetidin-3-yl)amino)-2-oxoethylidene)amino)oxy)propanoic acid] | 12.5 | 1.563
17 | C[n+]1ccc(-c2ccc(OC[C@H](O/N=C(\C(=O)N[C@@H]3C(=O)N(OS(=O)(=O)[O-])C3(C)C)c3csc(N)n3)C(=O)O)cc2)cc1NCCN [Example 62, (S)-3-((Z)-2-(((S)-2-(4-(2-((2-aminoethyl)amino)-1-methylpyridin-1-ium-4-yl)phenoxy)-1-carboxyethoxy)imino)-2-(2-aminothiazol-4-yl)acetamido)-2,2-dimethyl-4-oxoazetidin-1-yl sulfate] | 5.8 | 0.36
